Test results from ChEMBL document CHEMBL1201862, “PubChem BioAssay data set” (2004).
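Exposure lasted 48 hours, with cells grown in 96-well plates and compounds tested at five concentrations. GI50 = concentration required for 50% inhibition of growth.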 Activity calls are given as the source filed them. Rule as the data show it: active = GI50 up to about 1.1 µM and inactive = higher.

Assays:
Assay in all cases: growth of human tumour cells (NCI), 48 h
NCI-H226 = tested on: NCI-H226
NCI-H460 = tested on: NCI-H460
ACHN = tested on: ACHN
786-0 = tested on: 786-0
SK-MEL-28 = tested on: SK-MEL-28
RPMI-8226 = tested on: RPMI-8226
HL-60 = tested on: HL-60
MDA-N = tested on: MDA-N
Hs-578T = tested on: Hs-578T
NCI-H23 = tested on: NCI-H23
SNB-19 = tested on: SNB-19
SF-295 = tested on: SF-295
SR = tested on: SR
MCF7 = tested on: MCF7
PC-3 = tested on: PC-3
RXF 393 = tested on: RXF 393
IGROV-1 = tested on: IGROV-1
M14 = tested on: M14
SF-539 = tested on: SF-539
HCT-15 = tested on: HCT-15
SW-620 = tested on: SW-620
HOP-62 = tested on: HOP-62
UACC-257 = tested on: UACC-257
HT-29 = tested on: HT-29
T47D = tested on: T47D
COLO 205 = tested on: COLO 205
OVCAR-3 = tested on: OVCAR-3
MDA-MB-435 = tested on: MDA-MB-435
A549 = tested on: A549
K562 = tested on: K562
MDA-MB-231 = tested on: MDA-MB-231
SK-MEL-5 = tested on: SK-MEL-5
SN12C = tested on: SN12C
HOP-92 = tested on: HOP-92
TK-10 = tested on: TK-10
HCT-116 = tested on: HCT-116
NCI/ADR-RES = tested on: NCI/ADR-RES
OVCAR-8 = tested on: OVCAR-8
EKVX = tested on: EKVX
UO-31 = tested on: UO-31
A498 = tested on: A498
NCI-H522 = tested on: NCI-H522
DU-145 = tested on: DU-145
SF-268 = tested on: SF-268
MOLT-4 = tested on: MOLT-4
CAKI-1 = tested on: CAKI-1
HCC 2998 = tested on: HCC 2998
BT-549 = tested on: BT-549
LOX IMVI = tested on: LOX IMVI
KM12 = tested on: KM12
CCRF-CEM = tested on: CCRF-CEM
Malme-3M = tested on: Malme-3M
UACC-62 = tested on: UACC-62
OVCAR-4 = tested on: OVCAR-4
U-251 = tested on: U-251
SNB-75 = tested on: SNB-75

CN(C)Cc1cc(/N=N/c2ccc(Cl)c(Cl)c2)ccc1O was tested, and the GI50 (NCI-H226) was 17.9 µM (inactive), the GI50 (NCI-H460) was 6.35 µM (inactive) and the GI50 (ACHN) was 4.44 µM (inactive). The GI50 (786-0) was 11.5 µM (inactive), the GI50 (SK-MEL-28) was 13.7 µM (inactive) and the GI50 (RPMI-8226) was 14.3 µM (inactive). The GI50 (HL-60) was 2.52 µM (inactive), the GI50 (MDA-N) was 11.4 µM (inactive) and the GI50 (Hs-578T) was 6.03 µM (inactive). For the same molecule, the GI50 (NCI-H23) was 13.6 µM (inactive), the GI50 (SNB-19) was 13.6 µM (inactive) and the GI50 (SF-295) was 17.8 µM (inactive). For the same molecule, the GI50 (SR) was 7.45 µM (inactive), the GI50 (MCF7) was 4.46 µM (inactive) and the GI50 (PC-3) was 11.6 µM (inactive). For the same molecule, the GI50 (RXF 393) was 1.48 µM (inactive), the GI50 (IGROV-1) was 3.4 µM (inactive) and the GI50 (M14) was 16 µM (inactive). The GI50 (SF-539) was 18.5 µM (inactive), the GI50 (HCT-15) was 6.5 µM and the GI50 (SW-620) was 11.1 µM (inactive). The GI50 (HOP-62) was 2.72 µM (inactive), the GI50 (UACC-257) was 16.8 µM (inactive) and the GI50 (HT-29) was 6.53 µM (inactive). For the same molecule, the GI50 (T47D) was 7 µM (inactive), the GI50 (COLO 205) was 2.84 µM (inactive) and the GI50 (OVCAR-3) was 6.34 µM (inactive). For the same molecule, the GI50 (MDA-MB-435) was 11.7 µM (inactive), the GI50 (A549) was 13.9 µM (inactive) and the GI50 (K562) was 2.61 µM (inactive). The GI50 (MDA-MB-231) was 5.15 µM (inactive), the GI50 (SK-MEL-5) was 12.4 µM (inactive) and the GI50 (SN12C) was 14.7 µM (inactive). For the same molecule, the GI50 (HOP-92) was 3.3 µM (inactive), the GI50 (TK-10) was 10.9 µM (inactive) and the GI50 (HCT-116) was 14.4 µM (inactive). For the same molecule, the GI50 (NCI/ADR-RES) was 7.46 µM (inactive), the GI50 (OVCAR-8) was 12.9 µM (inactive) and the GI50 (EKVX) was 12.6 µM (inactive). For the same molecule, the GI50 (UO-31) was 2.49 µM (inactive), the GI50 (A498) was 11.1 µM (inactive) and the GI50 (NCI-H522) was 5.41 µM (inactive). The GI50 (DU-145) was 4 µM (inactive), the GI50 (SF-268) was 3.61 µM (inactive) and the GI50 (MOLT-4) was 6.21 µM (inactive). The GI50 (CAKI-1) was 12.6 µM (inactive), the GI50 (HCC 2998) was 12.1 µM (inactive) and the GI50 (BT-549) was 13.8 µM (inactive). For the same molecule, the GI50 (LOX IMVI) was 3.4 µM (inactive), the GI50 (KM12) was 4.35 µM (inactive) and the GI50 (CCRF-CEM) was 4.43 µM (inactive). The GI50 (Malme-3M) was 15.6 µM (inactive), the GI50 (UACC-62) was 5.96 µM (inactive) and the GI50 (OVCAR-4) was 7.28 µM (inactive). The GI50 (U-251) was 11.5 µM (inactive) and the GI50 (SNB-75) was 7.13 µM (inactive).
